In patent publication US10968215B2 (SHANGHAI HAIHE PHARMACEUTICAL CO., LTD., priority 2016, dated 2021):
Where two headings read alike, the source gives them in different places.

Target: PRC2 complex (EZH2 Y641F/EED/SUZ12/RbAp48/AEBP2) (Homo sapiens (Human), UniProt Q15910, Y641F)
Experiment: Activity of a compound to PRC2 complex (EZH2 Y641F), HTRF
[1] = read-out: IC50 (EZH2_Y641F), EZH2 Y641F PRC2 complex, HTRF, class symbols

Chain of PRC2 complex (EZH2 Y641F/EED/SUZ12/RbAp48/AEBP2) (Q15910 whole entry Y641F): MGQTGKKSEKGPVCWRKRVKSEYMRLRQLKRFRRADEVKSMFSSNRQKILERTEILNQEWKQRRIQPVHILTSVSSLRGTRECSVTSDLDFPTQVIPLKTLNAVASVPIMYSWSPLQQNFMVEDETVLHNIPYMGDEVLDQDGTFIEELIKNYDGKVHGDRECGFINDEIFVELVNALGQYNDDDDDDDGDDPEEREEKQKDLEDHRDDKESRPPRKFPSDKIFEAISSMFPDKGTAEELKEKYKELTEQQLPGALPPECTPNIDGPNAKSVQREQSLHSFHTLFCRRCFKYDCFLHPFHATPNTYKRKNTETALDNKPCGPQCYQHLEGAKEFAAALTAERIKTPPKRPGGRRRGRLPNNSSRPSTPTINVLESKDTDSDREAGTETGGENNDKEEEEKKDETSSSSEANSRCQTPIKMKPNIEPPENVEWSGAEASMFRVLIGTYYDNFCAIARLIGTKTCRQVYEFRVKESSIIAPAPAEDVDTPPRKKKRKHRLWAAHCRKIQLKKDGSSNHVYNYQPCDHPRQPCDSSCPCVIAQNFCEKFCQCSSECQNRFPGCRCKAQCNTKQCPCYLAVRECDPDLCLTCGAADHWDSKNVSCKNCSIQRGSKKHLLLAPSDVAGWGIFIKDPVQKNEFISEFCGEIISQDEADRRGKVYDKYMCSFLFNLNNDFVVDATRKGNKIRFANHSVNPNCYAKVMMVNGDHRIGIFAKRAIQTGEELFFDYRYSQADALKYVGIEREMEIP
Chain of PRC2 complex (EZH2 Y641F/EED/SUZ12/RbAp48/AEBP2) (O75530 whole entry partner): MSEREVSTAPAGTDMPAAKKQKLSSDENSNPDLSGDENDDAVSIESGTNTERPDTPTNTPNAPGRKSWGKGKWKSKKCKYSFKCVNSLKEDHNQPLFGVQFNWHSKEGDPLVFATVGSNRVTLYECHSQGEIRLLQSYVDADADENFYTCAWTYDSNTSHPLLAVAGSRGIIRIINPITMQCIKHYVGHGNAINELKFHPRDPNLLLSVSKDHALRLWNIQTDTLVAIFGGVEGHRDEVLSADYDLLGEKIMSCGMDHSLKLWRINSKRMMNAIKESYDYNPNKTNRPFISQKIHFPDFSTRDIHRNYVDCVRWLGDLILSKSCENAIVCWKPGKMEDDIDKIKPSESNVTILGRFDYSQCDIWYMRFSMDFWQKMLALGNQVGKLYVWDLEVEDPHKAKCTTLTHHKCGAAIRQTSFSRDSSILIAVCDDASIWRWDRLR
Chain of PRC2 complex (EZH2 Y641F/EED/SUZ12/RbAp48/AEBP2) (Q15022 whole entry partner): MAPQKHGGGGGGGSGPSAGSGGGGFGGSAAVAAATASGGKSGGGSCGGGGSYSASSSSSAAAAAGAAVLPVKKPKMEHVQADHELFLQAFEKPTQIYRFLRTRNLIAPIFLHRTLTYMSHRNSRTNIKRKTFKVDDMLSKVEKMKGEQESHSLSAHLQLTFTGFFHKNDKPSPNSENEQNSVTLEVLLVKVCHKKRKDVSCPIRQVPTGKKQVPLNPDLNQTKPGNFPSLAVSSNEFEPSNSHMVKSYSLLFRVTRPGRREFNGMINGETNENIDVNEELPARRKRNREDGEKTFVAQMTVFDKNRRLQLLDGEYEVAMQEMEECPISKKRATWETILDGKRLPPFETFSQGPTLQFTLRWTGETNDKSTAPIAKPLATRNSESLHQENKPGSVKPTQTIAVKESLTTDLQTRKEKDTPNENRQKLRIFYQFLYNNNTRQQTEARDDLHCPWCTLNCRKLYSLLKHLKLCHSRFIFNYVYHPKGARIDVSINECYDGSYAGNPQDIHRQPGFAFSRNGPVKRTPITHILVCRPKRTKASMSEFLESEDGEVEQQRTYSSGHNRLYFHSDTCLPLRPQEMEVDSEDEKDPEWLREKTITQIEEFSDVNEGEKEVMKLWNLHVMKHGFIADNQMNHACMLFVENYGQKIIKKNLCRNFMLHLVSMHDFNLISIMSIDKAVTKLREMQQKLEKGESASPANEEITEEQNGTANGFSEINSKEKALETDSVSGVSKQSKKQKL
Chain of PRC2 complex (EZH2 Y641F/EED/SUZ12/RbAp48/AEBP2) (Q09028 whole entry partner): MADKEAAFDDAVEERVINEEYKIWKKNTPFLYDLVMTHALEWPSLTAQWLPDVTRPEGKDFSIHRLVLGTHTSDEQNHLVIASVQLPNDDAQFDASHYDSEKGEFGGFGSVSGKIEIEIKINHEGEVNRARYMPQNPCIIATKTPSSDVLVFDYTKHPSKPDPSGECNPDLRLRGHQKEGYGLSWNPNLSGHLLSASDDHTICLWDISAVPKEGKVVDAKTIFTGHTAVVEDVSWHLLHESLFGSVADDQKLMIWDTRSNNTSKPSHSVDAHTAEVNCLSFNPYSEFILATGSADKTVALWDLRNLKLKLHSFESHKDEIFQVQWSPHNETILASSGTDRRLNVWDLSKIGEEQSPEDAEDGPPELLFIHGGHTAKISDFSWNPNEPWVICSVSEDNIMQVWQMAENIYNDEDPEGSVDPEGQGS
Chain of PRC2 complex (EZH2 Y641F/EED/SUZ12/RbAp48/AEBP2) (Q6ZN18 whole entry partner): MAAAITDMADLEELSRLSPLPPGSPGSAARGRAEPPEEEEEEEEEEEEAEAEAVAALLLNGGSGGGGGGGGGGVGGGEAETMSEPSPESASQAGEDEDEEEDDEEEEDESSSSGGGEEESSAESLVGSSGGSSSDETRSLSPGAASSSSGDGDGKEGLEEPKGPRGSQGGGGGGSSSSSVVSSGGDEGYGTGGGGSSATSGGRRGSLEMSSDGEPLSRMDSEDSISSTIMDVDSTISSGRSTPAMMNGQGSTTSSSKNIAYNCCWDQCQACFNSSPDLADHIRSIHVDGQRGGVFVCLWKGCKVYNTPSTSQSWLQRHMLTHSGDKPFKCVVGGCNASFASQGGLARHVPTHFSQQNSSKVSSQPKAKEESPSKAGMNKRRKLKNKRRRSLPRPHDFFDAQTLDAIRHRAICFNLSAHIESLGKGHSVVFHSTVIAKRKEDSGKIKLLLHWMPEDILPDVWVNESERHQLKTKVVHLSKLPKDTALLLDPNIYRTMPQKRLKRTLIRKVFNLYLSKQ
Description: Determination of the Activity of a Compound to PRC2 Complex (EZH2Y641F):
Detection Method: Homogeneous Time-Resolved Fluorescence (HTRF)
Reaction was conducted in darkness at room temperature for 4 h. […] The IC50 values of the compounds were calculated using SoftMax Pro 5.4.1 software.

Row | Structure (SMILES) | IC50 [1] [nM] | IC50 [nM]
1 | COc1cc(C)[nH]c(=O)c1CNC(=O)c1cc2c(-c3ccnc(N(C)C)c3)ccn2c([C@H](C)N2CCN(CC(F)(F)F)CC2)c1C (single isomer, unassigned) [Compound 172, (S)-1-(2-(dimethylamino)pyridin-4-yl)-N-((4-methoxy-6-methyl-2-oxo-1,2-dihydropyridine-3-yl)methyl)-6-methyl-5-(1-(4-(2,2,2-trifluoroethyl)piperazin-1-yl)ethyl)indolizine-7-carboxamide or (R) 1-(2-(dimethylamino)pyridin-4-yl)-N-((4-methoxy-6-methyl-2-oxo-1,2-dihydropyridine-3-yl)methyl)-6-methyl-5-(1-(4-(2,2,2-trifluoroethyl)piperazin-1-yl)ethyl)indolizine-7-carboxamide] | 100 to 1000 | –
2 | COc1cc(C)[nH]c(=O)c1CNC(=O)c1cc2c(-c3ccc(N)nc3)ccn2c(C(C)N2CCN(CC(F)(F)F)CC2)c1C (stereo not drawn) [Compound 157] | < 100 | –
3 | Cc1cc(C)c(CNC(=O)c2cc3cc(-c4ccc(N)nc4)cn3c(C(C)N3CCOCC3)c2C)c(=O)[nH]1 (stereo not drawn) [Example 89, 2-(6-aminopyridin-3-yl)-N-((4,6-dimethyl-2-oxo-1,2-dihydropyridin-3-yl)methyl)-6-methyl-5-(1-morpholinylethyl)indolizine-7-amide] | < 100 | –
4 | CCN(c1c(C)c(C(=O)NCc2c(C)cc(C)[nH]c2=O)cc2cc(-c3ccnn3C)cn12)C1CCOCC1 [Example 64, N-((4,6-dimethyl-2-oxo-1,2-dihydropyridin-3-yl)methyl)-5-(ethyl(tetrahydro-2H-pyran-4-yl)amino)-6-methyl-2-(4-morpholinephenyl)indolizine-7-carboxamide] | 100 to 1000 | –
5 | Cc1cc(C)c(CNC(=O)c2cc3cc(-c4cc5c(s4)CCNC5)cn3c(C(C)N3CCOCC3)c2C)c(=O)[nH]1 (stereo not drawn) [Example 115, N-((4,6-dimethyl-2-oxo-1,2-dihydropyridin-3-yl)methyl)-6-methyl-5-(1-morpholinoethyl)-2-(4,5,6,7-tetrahydrothieno[3,2-c]pyridin-2-yl)indolizine-7-carboxamide] | – | < 100
6 | Cc1cc(C)c(CNC(=O)c2cc3cc(Br)cn3c(C(C)N3CCC(F)(F)CC3)c2C)c(=O)[nH]1 (stereo not drawn) [Example 123, 2-bromo-5-(1-(4,4-difluoropiperidin-1-yl)ethyl)-N-((4,6-dimethyl-2-oxo-1,2-dihydropyridin-3-yl)methyl)-6-methylindolizine-7-carboxamide] | 1000 to 10000 | –
7 | Cc1cc(C)c(CNC(=O)c2cc3cc(Cl)cn3c(C(C)N3CCOCC3)c2C)c(=O)[nH]1 (stereo not drawn) [Example 69, 2-chloro-N-((4,6-dimethyl-2-oxo-1,2-dihydropyridin-3-yl)methyl)-6-methyl-5-(1-morphinolinylethyl)indolizine-7-carboxamide] | < 100 | –
8 | CCN(c1c(C)c(C(=O)NCc2c(C)cc(C)[nH]c2=O)cc2cc(-c3ccnn3C)cn12)C1CCOCC1 [Example 65, N-((4,6-dimethyl-2-oxo-1,2-dihydropyridin-3-yl)methyl)-5-(ethyl(tetrahydro-2H-pyran-4-yl)amino)-6-methyl-2-(1-methyl-1H-pyrazol-5-yl)indolizin-7-carboxamide] | < 100 | –
9 | Cc1cc(C)c(CNC(=O)c2cc3cc(C4=CCOCC4)cn3c(C(C)N3CCOCC3)c2C)c(=O)[nH]1 (stereo not drawn) [Example 47] | 100 to 1000 | –
10 | Cc1cc(C)c(CNC(=O)c2cc3cc(Cl)cn3c(C(C)N3CCC(N(C)C)CC3)c2C)c(=O)[nH]1 (stereo not drawn) [Example 70] | < 100 | –
11 | COc1cc(C)[nH]c(=O)c1CNC(=O)c1cc2c(-c3ccnn3C)ccn2c(C(C)N2CCOCC2)c1C (stereo not drawn) [Example 132, N-((4-methoxy-6-methyl-2-oxo-1,2-dihydropyridin-3-yl)methyl)-6-methyl-1-(1-methyl-1H-pyrazol-5-yl)-5-(1-morpholinylethyl)indolizine-7-carboxamide] | – | < 100
12 | COc1cc(-c2cc3cc(C(=O)NCc4c(C)cc(C)[nH]c4=O)c(C)c(C(C)OC)n3c2)cc(OC)c1OC (stereo not drawn) [Compound 151] | < 100 | –
13 | COC(=O)c1cc2cc(C(=O)NCc3c(C)cc(C)[nH]c3=O)c(C)c(C(C)N3CCOCC3)n2c1 (stereo not drawn) [Example 125, methyl 7-(((4,6-dimethyl-2-oxo-1,2-dihydropyridin-3-yl)methyl)carbamoyl)-6-methyl-5-(1-morpholinylethyl)indolizine-2-carboxylate] | 100 to 1000 | –
14 | Cc1cc(C)c(CNC(=O)c2cc3c(-c4ccc(N5CCOCC5)cc4)ccn3c(C(C)N3CCOCC3)c2C)c(=O)[nH]1 (stereo not drawn) [Example 119, N-((4,6-dimethyl-2-oxo-1,2-dihydropyridin-3-yl)methyl)-6-methyl-5-(1-morpholinylethyl)-1-(4-morpholinylphenyl)indolizine-7-carboxamide] | < 100 | –
15 | COc1cc(C)[nH]c(=O)c1CNC(=O)c1cc2c(-c3ccc(C)nc3C)ccn2c([C@H](C)N2CCN(CC(F)(F)F)CC2)c1C (single isomer, unassigned) [Compound 177, (S)-1-(2,6-dimethylpyridin-3-yl)-N-((4-methoxy-6-methyl-2-oxo-1,2-dihydropyridine-3-yl)methyl)-6-methyl-5-(1-(4-(2,2,2-trifluoroethyl)piperazin-1-yl)ethyl)indolizine-7-carboxamide or (R) 1-(2,6-dimethylpyridin-3-yl)-N-((4-methoxy-6-methyl-2-oxo-1,2-dihydropyridine-3-yl)methyl)-6-methyl-5-(1-(4-(2,2,2-trifluoroethyl)piperazin-1-yl)ethyl)indolizine-7-carboxamide] | < 100 | –
16 | Cc1cc(C)c(CNC(=O)c2cc3cccn3c(C(C)OCc3ccccn3)c2C)c(=O)[nH]1 (stereo not drawn) [Example 15, N-((4,6-dimethyl-2-oxo-1,2-dihydropyridin-3-yl)methyl)-6-methyl-5-(1-(pyridine-2-ylmethoxy)ethyl)indolizine-7-carboxamide] | 100 to 1000 | –
17 | COc1ccc(-c2cc3cc(C(=O)NCc4c(C)cc(C)[nH]c4=O)c(C)c(C(C)N4CCOCC4)n3c2)cc1 (stereo not drawn) [Example 97, N-((4,6-dimethyl-2-oxo-1,2-dihydropyridin-3-yl)methyl)-2-(4-methoxyphenyl)-6-methyl-5-(1-morpholinoethyl)indolizine-7-carboxamide] | – | 100 to 1000
18 | Cc1cc(C)c(CNC(=O)c2cc3cc(-c4ccnn4C)cn3c(C(C)N3CCN(CC(F)(F)F)CC3)c2C)c(=O)[nH]1 (stereo not drawn) [Example 84, N-((4,6-dimethyl-2-oxo-1,2-dihydropyridin-3-yl)methyl)-6-methyl-2-(1-methyl-1H-pyrazole-5-yl)-5-(1-(4-(2,2,2-trifluoroethyl)piperazin-1-yl)ethyl)indolizine-7-carboxamide] | 100 to 1000 | –
19 | Cc1cc(C)c(CNC(=O)c2cc3cc(Br)cn3c(C(C)N3CCN(C(=O)CO)CC3)c2C)c(=O)[nH]1 (stereo not drawn) [Example 101] | 100 to 1000 | –
20 | CNc1cc(-c2ccn3c(C(C)N4CCN(CC(F)(F)F)CC4)c(C)c(C(=O)NCc4c(OC)cc(C)[nH]c4=O)cc23)ccn1 (stereo not drawn) [Compound 180, N-((4-methoxy-6-methyl-2-oxo-1,2-dihydropyridin-3-yl)methyl)-6-methyl-1-(2-(methylamino)pyridin-4-yl)-5-(1-(4-(2,2,2-trifluoroethyl)piperazin-1-yl)ethyl)indolizine-7-carboxamide] | – | < 100
21 | Cc1cc(C)c(CNC(=O)c2cc3cc(-c4ccc(N5CCN(C)CC5)nc4)cn3c(C(C)N3CCOCC3)c2C)c(=O)[nH]1 (stereo not drawn) [Example 91] | < 100 | –
